Results published in patent publication US11040987B2 (TenNor Therapeutics Limited, priority 2019, dated 2021).
Values after ≈ are worked out from the molar mass of the structure shown.

Key:
Type in all cases: cell-based
[1] = test system: A. baumannii ATCC 19606; assay: MIC determination, broth microdilution, ESKAPE panel; details: Acinetobacter baumannii, ATCC19606; iron-depleted cation-adjusted Mueller-Hinton broth, 2,2-dipyridyl 160 μM; 37° C., 18-20 hours; read-out: MIC A. baumannii ATCC 19606
Description: (§1) Minimum inhibitory concentration (MIC) is determined by a broth microdilution method according to the recommendation of the Clinical and Laboratory Standards Institute (CLSI) with minor modification. […] Strains of an ESKAPE panel (E. faecium ATCC 700221, S. aureus ATCC 29213, K. pneumoniae ATCC 43816, A. baumannii ATCC 19606, P. aeruginosa ATCC 27853 and Escherichia coli ATCC 25922) were obtained originally from the American Type Culture Collection (ATCC) and used for MIC determinations of compounds. The bacteria inoculum in the test is […].

[2] = test system: E. faecium ATCC 700221; assay: as above; details: Enterococcus faecium, ATCC700221; iron-depleted cation-adjusted Mueller-Hinton broth, 2,2-dipyridyl 160 μM; 37° C., 18-20 hours; read-out: MIC E. faecium ATCC 700221
Description: as §1

[3] = test system: Escherichia coli ATCC 25922; assay: as above; details: ATCC25922, iron-depleted cation-adjusted Mueller-Hinton broth, 2,2-dipyridyl 160 μM, 37° C., 18-20 hours, read-out: MIC E. coli ATCC 25922
Description: as §1

[4] = test system: K. pneumoniae ATCC 43816; assay: as above; details: Klebsiella pneumoniae, ATCC43816; iron-depleted cation-adjusted Mueller-Hinton broth, 2,2-dipyridyl 160 μM; 37° C., 18-20 hours; read-out: MIC K. pneumoniae ATCC 43816
Description: as §1

[5] = test system: P. aeruginosa ATCC 27853; assay: as above; details: Pseudomonas aeruginosa, ATCC27853; iron-depleted cation-adjusted Mueller-Hinton broth, 2,2-dipyridyl 160 μM; 37° C., 18-20 hours; read-out: MIC P. aeruginosa ATCC 27853
Description: as §1

[6] = test system: S. aureus ATCC 29213; assay: as above; details: Staphylococcus aureus, ATCC29213; iron-depleted cation-adjusted Mueller-Hinton broth, 2,2-dipyridyl 160 μM; 37° C., 18-20 hours; read-out: MIC S. aureus ATCC 29213
Description: as §1

[7] = test system: A.b TNP 41704; assay: MIC against A. baumannii clinical isolates, alone and in combination with antibiotics; details: for MIC: Acinetobacter baumannii, TNP41704, Compounds alone, read-out: MIC A.b TNP 41704
[8] = test system: A.b TNP 41708; assay: as above; details: for MIC: Acinetobacter baumannii, TNP41708, read-out: MIC A.b TNP 41708
Description: as §1

[9] = test system: A.b TNP 41709; assay: as above; details: for MIC: Acinetobacter baumannii, TNP41709, Compounds alone, read-out: MIC A.b TNP 41709

| SMILES | MIC [1] [µg/mL] | MIC [2] [µg/mL] | MIC [3] [µg/mL] | MIC [4] [µg/mL] | MIC [5] [µg/mL] | MIC [6] [µg/mL] | MIC [7] [µg/mL] | MIC A.b TNP 41704 ([7]; Compounds + Imipenem (1:1)) [µg/mL] | MIC A.b TNP 41704 ([7]; Compounds + meropenem (1:1)) [µg/mL] | MIC A.b TNP 41704 ([7]; Compounds + sulbactam (1:1)) [µg/mL] | MIC [8] [µg/mL] | MIC A.b TNP 41708 ([8]; Compounds + Imipenem (1:1)) [µg/mL] | MIC A.b TNP 41708 ([8]; Compounds + meropenem (1:1)) [µg/mL] | MIC A.b TNP 41708 ([8]; Compounds + sulbactam (1:1)) [µg/mL] | MIC [9] [µg/mL] | MIC A.b TNP 41709 ([9]; Compounds + Imipenem (1:1)) [µg/mL] | MIC A.b TNP 41709 ([9]; Compounds + meropenem (1:1)) [µg/mL] | MIC A.b TNP 41709 ([9]; Compounds + sulbactam (1:1)) [µg/mL] |
| --- | --- | --- | --- | --- | --- | --- | --- | --- | --- | --- | --- | --- | --- | --- | --- | --- | --- | --- |
| C[C@]1(/C=N/NC(=O)CCNC(=O)c2ccc(O)c(O)c2)[C@H](C(=O)O)N2C(=O)C[C@H]2S1(=O)=O [Example 67, (2S,3R,5R)-3-((E)-(2-(3-(3,4-dihydroxybenzamido)propanoyl)hydrazono)methyl)-3-methyl-7-oxo-4-thia-1-azabicyclo[3.2.0]heptane-2-carboxylic acid 4,4-dioxide] | 4 (≈ 8.54 µM) | > 128 | > 128 | 128 (≈ 273 µM) | > 128 | 128 (≈ 273 µM) | > 128 | 4 | 4 | 1 | > 128 | 4 | 2 | 8 | > 128 | 8 | 4 | 8 |
| C[C@]1(c2cc(C(=O)c3ccc(O)c(O)c3)on2)[C@H](C(=O)O)N2C(=O)C[C@H]2S1(=O)=O [Example 112, (2S,3R,5R)-3-(5-(3,4-dihydroxybenzoyl)isoxazol-3-yl)-3-methyl-7-oxo-4-thia-1-azabicyclo[3.2.0]heptane-2-carboxylic acid 4,4-dioxide] | 32 (≈ 75.8 µM) | > 64 | > 64 | > 64 | > 64 | > 64 | > 64 |  | 16 | 2 | > 64 |  | 16 | 8 | > 64 |  | 8 | 2 |
| C[C@]1(/C=N/OCCNC(=O)c2ccc(O)c(O)c2Cl)[C@H](C(=O)O)N2C(=O)C[C@H]2S1(=O)=O [Example 118, (2S,3R,5R)-3-((E)-((2-(2-chloro-3,4-dihydroxybenzamido)ethoxy)imino)methyl)-3-methyl-7-oxo-4-thia-1-azabicyclo[3.2.0]heptane-2-carboxylic acid 4,4-dioxide] | > 128 | > 128 | > 128 | > 128 | > 128 | > 128 | > 128 |  | 128 | 16 | > 128 |  | >128 | >128 | > 128 |  | >128 | >128 |
| C[C@]1(COC(=O)c2ccc(O)c(O)c2Cl)[C@H](C(=O)O)N2C(=O)C[C@H]2S1(=O)=O [Example 114, (2S,3R,5R)-3-(((2-chloro-3,4-dihydroxybenzoyl)oxy)methyl)-3-methyl-7-oxo-4-thia-1-azabicyclo[3.2.0]heptane-2-carboxylic acid 4,4-dioxide] | < 0.06 | > 128 | 8 (≈ 19.1 µM) | 2 (≈ 4.76 µM) | > 128 | 16 (≈ 38.1 µM) | > 128 |  | 64 | 8 | > 128 |  | 64 | 32 | > 128 |  | 64 | 16 |
| C[C@]1(/C=N/NC(=O)Cc2ccc(O)c(O)c2)[C@H](C(=O)O)N2C(=O)C[C@H]2S1(=O)=O [Example 20, (2S,3R,5R)-3-((E)-(2-(2-(3,4-dihydroxyphenyl)acetyl)hydrazono)methyl)-3-methyl-7-oxo-4-thia-1-azabicyclo[3.2.0]heptane-2-carboxylic acid 4,4-dioxide] | 64 (≈ 156 µM) | > 128 | > 128 | > 128 | > 128 | 32 (≈ 77.8 µM) | > 128 |  | 8 | 4 | > 128 |  | 8 | 8 | > 128 |  | 8 | 16 |
| C[C@]1(/C=N/NC(=O)C2CCN(C(=O)c3ccc(O)c(O)c3Cl)CC2)[C@H](C(=O)O)N2C(=O)C[C@H]2S1(=O)=O [Example 42, (2S,3R,5R)-3-((E)-(2-(1-(2-chloro-3,4-dihydroxybenzoyl)piperidine-4-carbonyl)hydrazono)methyl)-3-methyl-7-oxo-4-thia-1-azabicyclo[3.2.0]heptane-2-carboxylic acid 4,4-dioxide] | 1 (≈ 1.84 µM) | > 128 | > 128 | > 128 | > 128 | 128 (≈ 236 µM) | > 128 |  | 2 | 8 | > 128 |  | 2 | 8 | > 128 |  | 2 | 4 |
| CN(NC(=O)c1ccc(O)c(O)c1)C(=O)OC[C@@]1(C)[C@H](C(=O)O)N2C(=O)C[C@H]2S1(=O)=O [Example 76, (2S,3R,5R)-3-(((2-(3,4-dihydroxybenzoyl)-1-methylhydrazinecarbonyl)oxy)methyl)-3-methyl-7-oxo-4-thia-1-azabicyclo[3.2.0]heptane-2-carboxylic acid 4,4-dioxide] | 1 (≈ 2.19 µM) | > 128 | > 128 | > 128 | > 128 | > 128 | > 128 |  | 16 | 8 | > 128 |  | 32 | 16 | > 128 |  | 16 | 8 |
| C[C@@H](O)[C@H]1C(=O)N2C(C(=O)O)=C(SCCN=CN)C[C@H]12 [Imipenem, reference compound] | 0.25 (≈ 0.835 µM) | > 128 | 0.25 (≈ 0.835 µM) | 0.5 (≈ 1.67 µM) | 1 (≈ 3.34 µM) | < 0.06 | 16 |  |  |  | 32 |  |  |  | 32 |  |  |  |
| C[C@H](NC(=O)c1ccc(O)c(O)c1Cl)C(=O)N/N=C/[C@@]1(C)[C@H](C(=O)O)N2C(=O)C[C@H]2S1(=O)=O [Example 62, (2S,3R,5R)-3-((E)-(2-((S)-2-(2-chloro-3,4-dihydroxybenzamido)propanoyl)hydrazono)methyl)-3-methyl-7-oxo-4-thia-1-azabicyclo[3.2.0]heptane-2-carboxylic acid 4,4-dioxide] | 4 (≈ 7.95 µM) | > 128 | > 128 | > 128 | > 128 | 128 (≈ 255 µM) | > 128 |  | 4 | 8 | > 128 |  | 4 | 8 | > 128 |  | 2 | 2 |
| C[C@@H](O)[C@H]1C(=O)N2C(C(=O)O)=C(S[C@@H]3CN[C@H](C(=O)N(C)C)C3)[C@H](C)[C@H]12 [Meropenem, reference compound] | 1 (≈ 2.61 µM) | > 128 | < 0.06 | < 0.06 | 0.5 (≈ 1.3 µM) | 0.125 (≈ 0.326 µM) | 64 |  |  |  | 128 |  |  |  | 128 |  |  |  |
| C[C@]1(/C=N/NC(=O)[C@H](CO)NC(=O)c2ccc(O)c(O)c2Cl)[C@H](C(=O)O)N2C(=O)C[C@H]2S1(=O)=O [Example 43, (2S,3R,5R)-3-((E)-(2-(2-(2-chloro-3,4-dihydroxybenzamido)-3-hydroxypropanoyl)hydrazono)methyl)-3-methyl-7-oxo-4-thia-1-azabicyclo[3.2.0]heptane-2-carboxylic acid 4,4-dioxide] | 8 (≈ 15.4 µM) |  | > 128 | > 128 | > 128 | > 128 | > 128 | 8 | 4 | 4 | > 128 | 8 | 4 | 8 | > 128 | 4 | 4 | 4 |
